Experimental data as given in patent publication US20080269102A1, “3-(2-Alkoxycarbonyloxy-Phenyl) Acrylic Acid Esters And Their Use As Precursors For The Delivery Of Olfactory Compounds” (GIVAUDAN SA, priority 2004, published 2008).

Experiments:
[1] = UV-spectra / colour comparison of protected and non-protected fragrance precursor in presence of a fabric conditioner; format: physicochemical; settings: 0.1 mg/ml in CH3CN/H2O (3:2), visually judged
Protocol: UV-Spectra Comparison (Protected/Non Protected Fragrance in Presence of a Fabric Conditioner)
Solutions A to D, 5 ml each, were prepared using CH3CN/H2O (3:2) as a solvent and their colour visually judged.
After adding a fabric conditioner to a solution comprising an unprotected fragrance precursor (solution A/B) the solution turned bright yellow, whereas a solution comprising a protected fragrance precursor (solution C/D) remains colourless.
The UV-spectra of solutions A to D were recorded and are depicted in FIG. 1.

[2] = additive fabric conditioner (30 mg)

Compound `CC(C)=CCCC(C)CCOC(=O)C=Cc1ccccc1O` (stereo not drawn) [Example 1, 3-(2-Hydroxy-phenyl)acrylic acid 3,7-dimethyl-oct-6-enyl ester] has a melting point of 37 to 39 °C.

For `C=CCCCCCCCCOC(=O)C=Cc1ccccc1O` [Example 2, 3-(2-Hydroxy-phenyl)acrylic acid dec-9-enyl ester], the Colour [1, 2] was “Bright”, the Colour ([1]; additive none) was “colourless” and the melting point was 58 °C.

In the case of `C=CCCCCCCCCOC(=O)C=Cc1ccccc1OC(=O)Oc1ccccc1C=CC(=O)OCCCCCCCCC=C` [Example 3], the Colour [1, 2] is reported as “colourless” and the Colour ([1]; additive none) is reported as “colourless”.
